Here are results for two compounds from patent US8440708B2, “Triazole-substituted arylamides as P2X3 and P2X2/3 antagonists” (Roche Palo Alto LLC, priority 2007, dated 2013).

The target in one assay is T1, rat P2X3 receptor (Rattus norvegicus, UniProt P49654).
T1 construct: expressed in transfected cells; host or cells: CHO-K1
T1 sequence (P49654 1-397): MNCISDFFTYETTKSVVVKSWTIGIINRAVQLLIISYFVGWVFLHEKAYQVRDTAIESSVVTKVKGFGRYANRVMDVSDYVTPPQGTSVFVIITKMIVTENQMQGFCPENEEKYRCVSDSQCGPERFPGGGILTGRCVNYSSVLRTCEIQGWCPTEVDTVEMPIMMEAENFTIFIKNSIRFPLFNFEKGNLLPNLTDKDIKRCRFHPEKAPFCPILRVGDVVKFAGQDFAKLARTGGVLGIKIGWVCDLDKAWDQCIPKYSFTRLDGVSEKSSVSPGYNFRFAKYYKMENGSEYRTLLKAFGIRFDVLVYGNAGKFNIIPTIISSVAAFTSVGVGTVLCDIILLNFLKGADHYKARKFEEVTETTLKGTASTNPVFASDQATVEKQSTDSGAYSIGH
Kind of assay: P2X3/P2X2/3 FLIPR (Fluorometric Imaging Plate Reader) Assay, P2X3. The conditions noted are these: CHO-K1 cells transfected with rat P2X3; agonist α,β-meATP 1 μM; Table 1; read-out: P2X3 pKi (converted). Type of assay: cell-based. Summed up: (§1)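 Inhibition curves came from nonlinear regression of peak fluorescence after α,β-meATP, given at 1 μM final for rat P2X3 and 5 μM for human P2X2/3. Compounds sat 20 min at room temperature on Fluo-3-loaded transfected CHO-K1 cells in HBSS/HEPES/2 mM CaCl2/probenecid buffer before agonist.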

The next assay addresses T2, human P2X2/3 receptor (Homo sapiens, UniProt P56373+Q9UBL9).
T2 construct: expressed in transfected cells; host or cells: CHO-K1
T2 sequence (Q9UBL9 1-471): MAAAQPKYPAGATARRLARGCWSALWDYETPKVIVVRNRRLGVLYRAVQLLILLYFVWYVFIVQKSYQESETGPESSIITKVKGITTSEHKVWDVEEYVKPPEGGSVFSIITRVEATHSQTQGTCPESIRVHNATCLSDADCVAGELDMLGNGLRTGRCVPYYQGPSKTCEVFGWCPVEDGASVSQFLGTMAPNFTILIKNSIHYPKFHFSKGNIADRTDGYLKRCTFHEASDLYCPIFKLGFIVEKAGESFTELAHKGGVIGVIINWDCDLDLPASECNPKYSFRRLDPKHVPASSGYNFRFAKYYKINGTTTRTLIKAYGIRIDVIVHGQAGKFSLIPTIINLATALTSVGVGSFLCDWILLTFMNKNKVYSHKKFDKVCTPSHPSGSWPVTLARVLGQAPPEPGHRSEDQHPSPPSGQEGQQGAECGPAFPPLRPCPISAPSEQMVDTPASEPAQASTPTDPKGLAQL
T2 sequence (P56373 1-397): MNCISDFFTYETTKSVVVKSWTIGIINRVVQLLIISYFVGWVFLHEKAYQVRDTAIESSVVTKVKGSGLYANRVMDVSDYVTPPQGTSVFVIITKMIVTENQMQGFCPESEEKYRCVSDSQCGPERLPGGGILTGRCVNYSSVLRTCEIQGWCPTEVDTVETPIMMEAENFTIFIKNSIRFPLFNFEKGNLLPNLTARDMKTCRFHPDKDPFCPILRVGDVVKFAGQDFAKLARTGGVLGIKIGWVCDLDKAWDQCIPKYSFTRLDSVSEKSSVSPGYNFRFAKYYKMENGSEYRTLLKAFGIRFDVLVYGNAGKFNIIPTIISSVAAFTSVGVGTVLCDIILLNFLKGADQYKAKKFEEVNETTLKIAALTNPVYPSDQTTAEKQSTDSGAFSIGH
Kind of assay: P2X3/P2X2/3 FLIPR (Fluorometric Imaging Plate Reader) Assay, P2X2/3. Type of assay: cell-based. The conditions noted are these: CHO-K1 cells transfected with human P2X2/3; agonist α,β-meATP 5 μM; Table 1; read-out: P2X2/3 pKi (converted). Summed up:
as §1

As to `Cc1ccc(-c2cc(C(=O)N[C@H](C)CN3CCOCC3)cc(-n3ncnc3C(F)(F)F)c2)nc1` [Compound 179, N-((R)-1-Methyl-2-morpholin-4-yl-ethyl)-3-(5-methyl-pyridin-2-yl)-5-(5-trifluoromethyl-[1,2,4]triazol-1-yl)-benzamide], the Ki on rat P2X3 receptor is 24.5 nM; at human P2X2/3 receptor, 339 nM.
For `Cc1ccc(-c2cc(C(=O)N[C@@H](C)c3cnccn3)cc(-n3ncnc3C(F)(F)F)c2)nc1` [Compound 180, 3-(5-Methyl-pyridin-2-yl)-N-((S)-1-pyrazin-2-yl-ethyl)-5-(5-trifluoromethyl-[1,2,4]triazol-1-yl)-benzamide] the same measures were 6.61 nM and 46.8 nM.
